Test results from patent publication US20260256925A1, “INDAZOLE DERIVATIVES AS ESTROGEN RECEPTOR DEGRADERS” (REGENTS OF THE UNIVERSITY OF MICHIGAN, priority 2022, published 2026).

molecular target: T1, ER (Homo sapiens, UniProt P03372); assay: In-cell western blot analysis, relative ER percentage (compounds B1-B126); type: cell-based; settings: ER degradation, 16 hours, read-out: ICW DC50
T1 construct: endogenous in cells; probably T47D or MCF-7
T1 sequence (P03372 1-595): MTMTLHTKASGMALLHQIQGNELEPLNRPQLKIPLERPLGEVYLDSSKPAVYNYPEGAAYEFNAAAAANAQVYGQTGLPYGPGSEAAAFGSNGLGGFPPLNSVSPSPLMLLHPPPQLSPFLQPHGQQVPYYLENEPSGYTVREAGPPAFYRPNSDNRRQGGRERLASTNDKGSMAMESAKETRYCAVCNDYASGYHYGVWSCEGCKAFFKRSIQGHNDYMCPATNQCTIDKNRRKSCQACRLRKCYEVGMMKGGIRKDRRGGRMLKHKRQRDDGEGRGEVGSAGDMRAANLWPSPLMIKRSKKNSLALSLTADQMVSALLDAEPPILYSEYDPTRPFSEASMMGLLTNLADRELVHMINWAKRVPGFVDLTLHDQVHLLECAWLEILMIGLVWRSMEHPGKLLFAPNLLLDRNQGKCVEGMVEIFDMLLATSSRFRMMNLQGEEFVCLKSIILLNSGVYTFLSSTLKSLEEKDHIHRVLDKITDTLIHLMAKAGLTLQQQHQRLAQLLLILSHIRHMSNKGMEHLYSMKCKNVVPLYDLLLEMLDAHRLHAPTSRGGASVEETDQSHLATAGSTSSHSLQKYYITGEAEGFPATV
Experimental: In-cell western blot analysis. Cells are seeded in multi-well plates (e.g., at 40,000 or 10,000 cells/well). Diluted compounds at certain concentration are added (final 0.5% DMSO) and cells are incubated for a certain period of time (e.g., 16 hours). Formaldehyde (e.g., PBS: FA=9:1) is added and followed by washing with PBS. The cells are blocked with Licor blocking buffer (Li-Cor). The relative ER percentage in treated cells are obtained by comparing the values of treated wells to those in untreated and DMSO-treated wells as 100%.
In-cell western blot analysis. a. seed cells in black-sided/clear bottom 96- or 384-well plates at 40,000 or 10,000 cells/well, overnight; b. add diluted compounds (final 0.5% DMSO), 16 hours. […] RT 2h, gentle shaking. Negative control: cells plus secondary antibodies (no primary antibodies); e. wash×4 with PBS +0.05-0.1% Tween 20, gentel shaking; f. anti-rabbit-680 and anti-mouse-800 (both 1:1000 in LiCor block+0.05% Tween20, RT 1h, gentle shaking, no light. LI-COR: 0.2% to reduce background; g. wash×4 with PBS+0.05% Tween 20, gental shaking; h. add 100 μL or 25 μL of PBS to each well and read on CLX plate reader. The relative ER percentage in treated cells were obtained by comparing the values of treated wells to those in untreated and DMSO-treated wells as 100%.

Compound	DC50 [nM]
3-((R)-7-((7-(6-((6S,8R)-7-(2,2- difluoroethyl)-8-methyl-6,7,8,9- tetrahydro-3H-pyrazolo[4,3- f]isoquinolin-6-yl)pyridin-3-yl)-7- azaspiro[3.5]nonan-2-yl)mcthyl)-1- oxo-1,3,5,5a,6,7,8,9-octahydro-2H- pyrazino[1′,2′:4,5][1,4]oxazino[2,3- e]isoindol-2-yl)piperidine-2,6- dione [Compound B83]	> 100
C[C@@H]1Cc2c(ccc3[nH]ncc23)[C@@H](c2c(F)cc(C3=CCC(C(=O)N4CCC(N5Cc6cc7c(cc6C5)C(=O)N(C5CCC(=O)NC5=O)C7=O)CC4)CC3)cc2F)N1CC(F)F (stereo partly shown) [Compound B102]	> 100
COc1cc(N2CCC3(CC2)CC(CN2CCC4(CC2)COc2c4ccc4c2CN(C2CCC(=O)NC2=O)C4=O)C3)ccc1[C@@H]1c2ccc3[nH]ncc3c2C[C@@H](C)N1CC(F)F (stereo partly drawn) [Compound B56, 3-(1′-((7-(4-((6S,8R)-7-(2,2-difluoroethyl)-8-methyl-6,7,8,9-tetrahydro-3H-pyrazolo[4,3-f]isoquinolin-6-yl)-3-methoxyphenyl)-7-azaspiro[3.5]nonan-2-yl)methyl)-6-oxo-6,8-dihydro-2H,7H-spiro[furo[2,3-e]isoindole-3,4′-piperidin]-7-yl)piperidine-2,6-dione]	> 100
C[C@@H]1Cc2c(ccc3[nH]ncc23)[C@@H](c2ccc(N3CCC4(CCN(CC(=O)N5Cc6cc7c(cc6C5)C(=O)N(C5CCC(=O)NC5=O)C7=O)CC4)CC3)cn2)N1CC(F)F (stereo partly drawn) [Compound B50, 6-(2-(9-(6-((6S,8R)-7-(2,2-difluoroethyl)-8-methyl-6,7,8,9-tetrahydro-3H-pyrazolo[4,3-f]isoquinolin-6-yl)pyridin-3-yl)-3,9-diazaspiro[5.5]undecan-3-yl)acetyl)-2-(2,6-dioxopiperidin-3-yl)-6,7-dihydropyrrolo[3,4-f]isoindole-1,3(2H,5H)-dione]	> 100

Next, values leading:

DC50 [nM]	Compound
< 10	C[C@@H]1Cc2c(ccc3[nH]ncc23)[C@@H](c2cnc(N3CCC4(CC3)CC(CN3CCN5c6cc7c(cc6OC[C@@H]5C3)C(=O)N(C3CCC(=O)NC3=O)C7)C4)nc2)N1CC(F)(F)F (stereo partly drawn) [Compound B113, 3-((S)-3-((7-(5-((6S,8R)-8-methyl-7-(2,2,2-trifluoroethyl)-6,7,8,9-tetrahydro-3H-pyrazolo[4,3-f]isoquinolin-6-yl)pyrimidin-2-yl)-7-azaspiro[3.5]nonan-2-yl)mcthyl)-8-oxo-1,2,3,4,4a,5,8,10-octahydro-9H-pyrazino[1′,2′:4,5][1,4]oxazino[2,3-f]isoindol-9-yl)piperidine-2,6-dione]
> 100	C[C@H]1Cc2c(ccc3[nH]ncc23)[C@H](c2ccc(N3CCC4(CC3)CC(CN3CCN(c5ccc(NC6CCC(=O)NC6=O)cc5F)CC3)C4)cn2)N1CC(F)(F)F (stereo partly drawn) [Compound B120, 3-((3-fluoro-4-(4-((7-(6-((6R,8S)-8-methyl-7-(2,2,2-trifluoroethyl)-6,7,8,9-tetrahydro-3H-pyrazolo[4,3-f]isoquinolin-6-yl)pyridin-3-yl)-7-azaspiro[3.5]nonan-2-yl)methyl)piperazin-1-yl)phenyl)amino)piperidine-2,6-dione]
< 10	C[C@H]1Cc2c(ccc3[nH]ncc23)[C@H](c2cnc(N3CC4(CCC(CN5CCN6c7ccc8c(c7OC[C@@H]6C5)CN([C@@H]5CCC(=O)NC5=O)C8=O)CC4)C3)nc2)N1CC(F)(F)F [Compound B123, (R)-3-((S)-7-((2-(5-((6R,8S)-8-methyl-7-(2,2,2-trifluoroethyl)-6,7,8,9-tetrahydro-3H-pyrazolo[4,3-f]isoquinolin-6-yl)pyrimidin-2-yl)-2-azaspiro[3.5]nonan-7-yl)methyl)-1-oxo-1,3,5,5a,6,7,8,9-octahydro-2H-pyrazino[1′,2′:4,5][1,4]oxazino[2,3-e]isoindol-2-yl)piperidine-2,6-dione]
10 to 100	C[C@H]1Cc2c(ccc3[nH]ncc23)[C@H](c2cnc(N3CCC4(CC3)CC(CN3CCN5c6cc7c(cc6OC[C@H]5C3)C(=O)N(C3CCC(=O)NC3=O)C7)C4)nc2)N1CC(F)(F)F (stereo partly drawn) [Compound B118, 3-((R)-3-((7-(5-((6R,8S)-8-methyl-7-(2,2,2-trifluoroethyl)-6,7,8,9-tetrahydro-3H-pyrazolo[4,3-f]isoquinolin-6-yl)pyrimidin-2-yl)-7-azaspiro[3.5]nonan-2-yl)methyl)-8-oxo-1,2,3,4,4a,5,8,10-octahydro-9H-pyrazino[1′,2′:4,5][1,4]oxazino[2,3-f]isoindol-9-yl)piperidine-2,6-dione]
> 100	C[C@H]1Cc2c(ccc3[nH]ncc23)[C@H](c2cnc(N3CCC4(CC3)CC(CN3CCN(c5ccc(NC6CCC(=O)NC6=O)cc5F)CC3)C4)nc2)N1CC(F)(F)F (stereo partly drawn) [Compound B122, 3-((3-fluoro-4-(4-((7-(5-((6R,8S)-8-methyl-7-(2,2,2-trifluoroethyl)-6,7,8,9-tetrahydro-3H-pyrazolo[4,3-f]isoquinolin-6-yl)pyrimidin-2-yl)-7-azaspiro[3.5]nonan-2-yl)methyl)piperazin-1-yl)phenyl)amino)piperidine-2,6-dione]
> 100	C[C@H]1Cc2c(ccc3[nH]ncc23)[C@H](c2ccc(N3CC4(CCC(CN5CCN(c6ccc(NC7CCC(=O)NC7=O)cc6F)CC5)CC4)C3)cn2)N1CC(F)(F)F (stereo partly drawn) [Compound B121, 3-((3-fluoro-4-(4-((2-(6-((6R,8S)-8-methyl-7-(2,2,2-trifluoroethyl)-6,7,8,9-tetrahydro-3H-pyrazolo[4,3-f]isoquinolin-6-yl)pyridin-3-yl)-2-azaspiro[3.5]nonan-7-yl)methyl)piperazin-1-yl)phenyl)amino)piperidine-2,6-dione]

tested on: not listed separately; assay: Cell growth assay, WST-8 (compounds B1-B126); type: cell-based; settings: 96 h; T47D cell line, WST-8, 4 days; read-out: Cell growth inhibition in T47D cell line IC50
Experimental: Cell Growth Assay. The cells are seeded at certain concentration (e.g., at 1500/well) in multi-well plates overnight. Cells are subsequently treated with the compounds. A certain period of time (e.g., 4 days) after the compound treatment, 10% WST-8 reagent is added to the culture medium and incubate under certain condiction (e.g., in a CO2 incubator at 37° C. for 2.5 hours). The absorbance is measured on each sample using a microplate reader at certain wavelength (e.g., 450 nm). The relative absorbance is calculated against the vehicle control from three individually repeats.
Cell Growth Assay. The cells were seeded at 1500/well in 96 well plates overnight. One day after the seeding, they were treated with indicated doses of compounds respectively. 4 days after the compound treatment, 10% WST-8 reagent was added to the culture medium and incubate in a CO2 incubator at 37° C. for 2.5 hours. Before reading, the plate was mixed gently on an orbital shaker for one minute to ensure homogeneous distribution of color. The absorbance was measured of each sample using a microplate reader at a wavelength of 450 nm. The relative absorbance was calculated against the vehicle control from three individually repeats.

Compound	IC50 [nM]
C[C@@H]1Cc2c(ccc3[nH]ncc23)[C@@H](c2c(F)cc(N3CCC(CN4CCC5(CCOc6c5ccc5c6CN(C6CCC(=O)NC6=O)C5=O)CC4)CC3)cc2F)N1CC(F)F (stereo partly drawn) [Compound B47, 3-(1-((1-(4-((6S,8R)-7-(2,2-difluoroethyl)-8-methyl-6,7,8,9-tetrahydro-3H-pyrazolo[4,3-f]isoquinolin-6-yl)-3,5-difluorophenyl)piperidin-4-yl)methyl)-7′-oxo-2′,3′,7′,9′-tetrahydro-8′H-spiro[piperidine-4,4′-pyrano[2,3-e]isoindol]-8′-yl)piperidine-2,6-dione]	< 1
COc1c2c(cc3c1CN(C1CCC(=O)NC1=O)C3=O)CN(CC(=O)N1CCC3(CC1)CCN(c1ccc([C@@H]4c5ccc6[nH]ncc6c5C[C@@H](C)N4CC(F)(F)F)nc1)CC3)C2 (stereo partly drawn) [Compound B75, 3-(4-methoxy-6-(2-(9-(6-((6S,8R)-8-methyl-7-(2,2,2-trifluoroethyl)-6,7,8,9-tetrahydro-3H-pyrazolo[4,3-f]isoquinolin-6-yl)pyridin-3-yl)-3,9-diazaspiro[5.5]undecan-3-yl)-2-oxoethyl)-1-oxo-3,5,6,7-tetrahydropyrrolo[3,4-f]isoindol-2(1H)-yl)piperidine-2,6-dione]	< 1
C[C@@H]1Cc2c(ccc3[nH]ncc23)[C@@H](c2c(F)cc(N3CCC4(CCN(C(=O)CN5Cc6cc7c(cc6C5)C(=O)N(C5CCC(=O)NC5=O)C7=O)CC4)CC3)cc2F)N1CC(F)F (stereo partly drawn) [Compound B15, 6-(2-(9-(4-((6S,8R)-7-(2,2-difluoroethyl)-8-methyl-6,7,8,9-tetrahydro-3H-pyrazolo[4,3-f]isoquinolin-6-yl)-3,5-difluorophenyl)-3,9-diazaspiro[5.5]undecan-3-yl)-2-oxoethyl)-2-(2,6-dioxopiperidin-3-yl)-6,7-dihydropyrrolo[3,4-f]isoindole-1,3(2H,5H)-dione]	< 1
